Columns and labels:
Assay in all cases: Kinase profiling in a biochemical assay panel (mobility shift assays and ELISA), %-inhibition at 1 μM; selectivity entropy
[1] = biological target: T1, panel of more than 300 wild-type and mutant kinases (313 kinase panel) (Homo sapiens, UniProt O15111); conditions: kinase IKKα; compound at 1 μM
T1 sequence (O15111 1-745): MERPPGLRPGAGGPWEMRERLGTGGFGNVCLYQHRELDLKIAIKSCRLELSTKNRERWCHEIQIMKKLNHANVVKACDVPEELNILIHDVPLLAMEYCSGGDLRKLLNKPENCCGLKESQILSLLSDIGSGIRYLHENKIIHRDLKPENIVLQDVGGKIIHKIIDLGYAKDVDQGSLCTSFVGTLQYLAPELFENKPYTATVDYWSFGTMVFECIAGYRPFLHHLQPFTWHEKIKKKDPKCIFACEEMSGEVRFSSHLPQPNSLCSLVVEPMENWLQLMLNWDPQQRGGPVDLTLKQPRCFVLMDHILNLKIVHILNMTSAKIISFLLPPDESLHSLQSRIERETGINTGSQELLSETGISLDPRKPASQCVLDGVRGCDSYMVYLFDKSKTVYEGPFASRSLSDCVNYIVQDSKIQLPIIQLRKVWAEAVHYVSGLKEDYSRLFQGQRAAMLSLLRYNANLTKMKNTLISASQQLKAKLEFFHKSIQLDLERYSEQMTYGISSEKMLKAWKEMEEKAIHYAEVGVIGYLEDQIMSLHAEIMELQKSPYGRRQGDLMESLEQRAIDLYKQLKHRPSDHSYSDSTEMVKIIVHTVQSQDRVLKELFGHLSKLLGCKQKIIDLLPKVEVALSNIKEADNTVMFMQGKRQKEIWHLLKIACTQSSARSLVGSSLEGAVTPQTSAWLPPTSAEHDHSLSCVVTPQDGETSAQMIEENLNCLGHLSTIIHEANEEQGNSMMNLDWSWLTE

[2] = biological target: panel of more than 300 wild-type and mutant kinases (313 kinase panel) (Homo sapiens, UniProt Q15418); conditions: kinase RSK1; 1 μM
[3] = biological target: T2, panel of more than 300 wild-type and mutant kinases (313 kinase panel) (Homo sapiens, UniProt O14920); conditions: kinase IKKβ; compound at 1 μM
T2 sequence (O14920 1-756): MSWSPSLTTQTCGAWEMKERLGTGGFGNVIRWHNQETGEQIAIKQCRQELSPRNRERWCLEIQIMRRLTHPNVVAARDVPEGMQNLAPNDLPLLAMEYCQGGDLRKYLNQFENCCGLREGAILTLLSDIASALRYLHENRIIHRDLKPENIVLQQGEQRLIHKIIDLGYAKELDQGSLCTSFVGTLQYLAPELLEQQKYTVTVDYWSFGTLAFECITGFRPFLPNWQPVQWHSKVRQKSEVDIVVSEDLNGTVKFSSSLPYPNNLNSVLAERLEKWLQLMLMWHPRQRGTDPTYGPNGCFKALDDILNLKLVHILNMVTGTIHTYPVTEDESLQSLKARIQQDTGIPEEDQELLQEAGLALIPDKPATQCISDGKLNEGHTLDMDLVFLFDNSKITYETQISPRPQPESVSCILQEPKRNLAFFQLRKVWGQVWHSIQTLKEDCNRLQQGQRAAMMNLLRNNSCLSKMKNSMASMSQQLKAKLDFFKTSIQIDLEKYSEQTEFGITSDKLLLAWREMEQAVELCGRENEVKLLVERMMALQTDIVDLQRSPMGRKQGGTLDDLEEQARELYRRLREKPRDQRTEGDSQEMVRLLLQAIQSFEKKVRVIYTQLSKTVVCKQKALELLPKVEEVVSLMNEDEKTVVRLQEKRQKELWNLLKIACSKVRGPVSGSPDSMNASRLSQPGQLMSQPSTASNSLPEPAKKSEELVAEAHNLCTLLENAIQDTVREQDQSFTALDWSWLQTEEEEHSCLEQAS

[4] = biological target: panel of more than 300 wild-type and mutant kinases (313 kinase panel) (Homo sapiens, UniProt Q9UM73, L1196M); conditions: kinase ALK(L1196M); 1 μM compound
[5] = biological target: T3, panel of more than 300 wild-type and mutant kinases (313 kinase panel) (Homo sapiens, UniProt Q15139); conditions: kinase PKD1; 1 μM
T3 sequence (Q15139 1-912): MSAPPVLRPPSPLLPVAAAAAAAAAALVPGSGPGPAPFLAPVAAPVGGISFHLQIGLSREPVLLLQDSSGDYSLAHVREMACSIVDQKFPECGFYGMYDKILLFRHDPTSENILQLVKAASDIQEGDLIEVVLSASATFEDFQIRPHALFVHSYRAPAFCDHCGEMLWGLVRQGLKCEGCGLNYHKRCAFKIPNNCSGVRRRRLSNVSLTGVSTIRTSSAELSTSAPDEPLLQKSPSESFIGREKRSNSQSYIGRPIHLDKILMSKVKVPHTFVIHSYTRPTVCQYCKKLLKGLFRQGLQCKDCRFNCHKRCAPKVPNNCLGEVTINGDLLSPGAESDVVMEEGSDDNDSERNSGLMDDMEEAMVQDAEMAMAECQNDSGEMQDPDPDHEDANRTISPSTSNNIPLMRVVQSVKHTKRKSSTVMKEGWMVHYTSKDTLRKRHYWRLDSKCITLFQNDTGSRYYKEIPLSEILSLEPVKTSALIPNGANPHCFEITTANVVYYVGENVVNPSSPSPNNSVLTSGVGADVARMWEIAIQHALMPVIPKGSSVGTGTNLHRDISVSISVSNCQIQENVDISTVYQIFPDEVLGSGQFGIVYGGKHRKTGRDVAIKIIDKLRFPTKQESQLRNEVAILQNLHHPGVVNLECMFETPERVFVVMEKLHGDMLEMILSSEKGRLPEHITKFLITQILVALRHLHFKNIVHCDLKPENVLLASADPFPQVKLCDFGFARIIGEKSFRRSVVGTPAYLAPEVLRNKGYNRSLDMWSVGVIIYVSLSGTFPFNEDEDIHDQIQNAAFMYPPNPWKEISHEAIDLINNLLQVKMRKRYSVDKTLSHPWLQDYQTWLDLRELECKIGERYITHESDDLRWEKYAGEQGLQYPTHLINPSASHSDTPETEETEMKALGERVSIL

[6] = biological target: panel of more than 300 wild-type and mutant kinases (313 kinase panel) (Homo sapiens, UniProt P35916); conditions: kinase FLT4; compound at 1 μM

## CCCS(=O)(=O)Nc1ccc(F)c(C(=O)c2c[nH]c3ncc(-c4ccc(Cl)cc4)cc23)c1F [vemurafenib]
[1]
  %-inhibition of IKKα: -1.89%
[2]
  %-inhibition of RSK1: -1.32%
[3]
  %-inhibition of IKKβ: -3.31%
[4]
  %-inhibition, ALK(L1196M): 3%
[5]
  %-inhibition of PKD1: 43%
[6]
  %-inhibition of FLT4: 24%

Reference: publication PMC3961306, “Comparison of the Cancer Gene Targeting and Biochemical Selectivities of All Targeted Kinase Inhibitors Approved for Clinical Use” (PLoS ONE, 2014)
